Holding throughout (assay type): cell-based
The test system of experiment [1] is alpha-smooth muscle actin (α-SMA). The experiment in a line: Inhibition of TGF-β induced expression of alpha-smooth muscle actin (α-SMA) in CFSC cells (western blot). Particulars: compound at 10 μM, TGF-β (10 ng/mL), 24 hours, band intensity vs TGF-β only. Summed up:
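CFSC hepatic stellate cells in serum-free DMEM treated 24 h at 37 °C with compound at 10 μM plus TGF-β (10 ng/mL). α-SMA measured by Western blot with β-actin, ECL detection, densitometry. Percent inhibition is decrease in band intensity versus TGF-β-only cells.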
On the technique in general: A western blot detects proteins with antibodies after separation by electrophoresis.

Experiment [2] has as its system MDA-MB-231 (breast cancer). The experiment is described as follows: Antiproliferative activity (CCK-8 cell viability), MDA-MB-231. The note with it: Homo sapiens, 72 h; for inhibition at 3.3 µM: Compound concentration: 3.3 μM; for inhibition at 3.3 µM / inhibition at 10 µM: read-out: Antiproliferative activity in cancerous cells, MDA-MB-231 (inhibition of cell growth); for inhibition at 10 µM: Compound concentration: 10 μM. Summed up: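 In this CCK-8 viability assay, MDA-MB-231 cells maintained in Dulbecco's modified Eagle's medium containing 10% fetal bovine serum were placed in 96-well plates (2,000-5,000 cells/well) and treated with compound for 72 h at 37° C. A 4 h incubation with 10 μL CCK-8 followed, plates were read at 450 nm, and viability was expressed against DMSO vehicle wells across replicates.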

The subject of experiment [3] is HepG2 (liver cancer). The experiment in a line: Antiproliferative activity (CCK-8 cell viability), HepG2. Particulars: Homo sapiens, 72 h; for inhibition at 3.3 µM: Compound concentration: 3.3 μM; for inhibition at 3.3 µM / inhibition at 10 µM: read-out: Antiproliferative activity in cancerous cells, HepG2 (inhibition of cell growth); for inhibition at 10 µM: Compound concentration: 10 μM; for inhibition at 30 µM: Compound concentration: 30 μM, read-out: Antiproliferative activity in cancerous cells, HepG2. Summed up: (§1)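 Cells were seeded at 2,000-5,000/well (HeLa in MEM, HepG2 and SW480 in DMEM, A549 in F-12K, all with 10% FBS) and treated with compound at 3.3, 10 or 30 μM for 72 h at 37° C. CCK-8 was added for 4 h, absorbance was read at 450 nm, and viability was expressed relative to DMSO-treated wells.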

For experiment [4], the system named is SW480 (colon cancer). The experiment in a line: Antiproliferative activity (CCK-8 cell viability), SW480. Particulars: Homo sapiens, 72 h; for inhibition at 3.3 µM: Compound concentration: 3.3 μM; for inhibition at 3.3 µM / inhibition at 10 µM: read-out: Antiproliferative activity in cancerous cells, SW480 (inhibition of cell growth); for inhibition at 10 µM: Compound concentration: 10 μM; for inhibition at 30 µM: Compound concentration: 30 μM, read-out: Antiproliferative activity in cancerous cells, SW480. Summed up: as §1

In experiment [5] the test system is B16F10 (malignant melanoma). The experiment is described as follows: Antiproliferative activity (CCK-8 cell viability), B16F10. The note with it: Mus musculus, 72 h; for inhibition at 3.3 µM: B16-F10, Compound concentration: 3.3 μM; for inhibition at 3.3 µM / inhibition at 10 µM: read-out: Antiproliferative activity in cancerous cells, B16F10 (inhibition of cell growth); for inhibition at 10 µM: B16-F10, Compound concentration: 10 μM; for inhibition at 30 µM: B16-F10, Compound concentration: 30 μM, read-out: Antiproliferative activity in cancerous cells, B16F10. Summed up: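 Attached B16F10 cells in 96-well plates were incubated with compound at 37° C for 72 h, followed by 10 μL CCK-8 reagent per well and a further 4 h incubation. A multi-well plate reader measured absorbance at 450 nm. Percent viability across replicates was calculated against DMSO vehicle-treated cells.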

For experiment [6], the system named is A431 (epidermoid carcinoma). The experiment is described as follows: Antiproliferative activity (CCK-8 cell viability), A431. The note with it: Homo sapiens, 72 h; for inhibition at 3.3 µM: A-431, Compound concentration: 3.3 μM; for inhibition at 3.3 µM / inhibition at 10 µM: read-out: Antiproliferative activity in cancerous cells, A431 (inhibition of cell growth); for inhibition at 10 µM: A-431, Compound concentration: 10 μM; for inhibition at 30 µM: A-431, Compound concentration: 30 μM, read-out: Antiproliferative activity in cancerous cells, A431. In a few lines: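 Cell viability of compound-treated A431 cells was measured with a Cell Counting Kit-8. Each well received 10 μL of CCK-8 after 72 h of compound exposure, followed by 4 h incubation at 37° C. and a 450 nm plate-reader measurement. Percent viability was calculated relative to DMSO controls across replicates.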

Experiment [7] deals with A549 (lung adenocarcinoma). The experiment is described as follows: Antiproliferative activity (CCK-8 cell viability), A549. Particulars: Homo sapiens, 72 h; for inhibition at 3.3 µM: Compound concentration: 3.3 μM; for inhibition at 3.3 µM / inhibition at 10 µM: read-out: Antiproliferative activity in cancerous cells, A549 (inhibition of cell growth); for inhibition at 10 µM: Compound concentration: 10 μM; for inhibition at 30 µM: Compound concentration: 30 μM, read-out: Antiproliferative activity in cancerous cells, A549. In a few lines:
as §1

Experiment [8] deals with HeLa (cervical cancer). The experiment is described as follows: Antiproliferative activity (CCK-8 cell viability), HeLa. Particulars: Homo sapiens, 72 h; for inhibition at 3.3 µM: Compound concentration: 3.3 μM; for inhibition at 3.3 µM / inhibition at 10 µM: read-out: Antiproliferative activity in cancerous cells, HELA (inhibition of cell growth); for inhibition at 10 µM: Compound concentration: 10 μM. Summed up: as §1

We go through six compounds from patent US20260184663A1, “INDENE COMPOUNDS, PHARMACEUTICAL COMPOSITIONS THEREOF, AND THEIR THERAPEUTIC APPLICATIONS” (NucMito Pharmaceuticals co. Ltd., priority 2022, published 2026).

Take `CC1=C(Cc2noc(=O)[nH]2)c2cc(F)ccc2/C1=C\c1ccc(Oc2ccc(F)cc2)cc1` [C26, (Z)-3-((5-Fluoro-1-(4-(4-fluorophenoxy)benzylidene)-2-methyl-1H-inden-3-yl)-methyl)-1,2,4-oxadiazol-5(4H)-one]: the inhibition at 10 µM in experiment [1] is > 80%; in experiment [2] it was ≥ 50%; in experiment [3] it was ≥ 50%; in experiment [4], ≥ 50%; in experiment [5], ≥ 50%; in experiment [6], ≥ 50%. Further, the inhibition at 10 µM in experiment [7] and in experiment [8] was ≥ 50% throughout. The inhibition at 3.3 µM was ≥ 50% in experiment [2]; < 30% in experiment [3]; < 30% in experiment [4]; < 30% in experiment [5]; < 30% in experiment [6]; 30 to 50% in experiment [7]. Besides, in experiment [8], the inhibition at 3.3 µM is < 30%.
Regarding `COc1ccc2c(c1)/C(=C\c1ccc(Oc3ccc(F)cc3)cc1)C(Cc1ccccc1)=C2CC(=O)O` [C27, (Z)-2-(2-Benzyl-1-(4-(4-fluorophenoxy)benzylidene)-6-methoxy-1H-inden-3-yl)-acetic acid], the inhibition at 10 µM was > 80% in experiment [1]; ≥ 50% in experiment [2]; ≥ 50% in experiment [3]; ≥ 50% in experiment [4]; ≥ 50% in experiment [5]; ≥ 50% in experiment [6]. The inhibition at 10 µM in experiment [7] and in experiment [8] was ≥ 50% each time. In addition, the inhibition at 3.3 µM is ≥ 50% in experiment [2]; ≥ 50% in experiment [3]; < 30% in experiment [4]; 30 to 50% in experiment [5]; < 30% in experiment [6]; ≥ 50% in experiment [7]. The inhibition at 3.3 µM in experiment [8] was ≥ 50%.
As for `CC1=C(C(C)C(=O)O)c2ccccc2/C1=C\c1ccc(Oc2ccc(F)cc2)cc1` (stereo not drawn) [C29, (Z)-2-(1-(4-(4-Fluorophenoxy)benzylidene)-2-methyl-1H-inden-3-yl)propanoic acid], the inhibition at 10 µM in experiment [1] is 50 to 80%; in experiment [2], ≥ 50%; in experiment [3], ≥ 50%; in experiment [4], 30 to 50%; in experiment [5], ≥ 50%; in experiment [6], ≥ 50%. In addition, the inhibition at 10 µM in experiment [7] was 30 to 50%; in experiment [8], ≥ 50%. Also, the inhibition at 3.3 µM in experiment [2] was 30 to 50%; in experiment [3] it was < 30%; in experiment [4] it was 30 to 50%; in experiment [5], 30 to 50%; in experiment [6], < 30%; in experiment [7], < 30%. Moreover, in experiment [8], the inhibition at 3.3 µM was ≥ 50%.
As for `CC1=C(Cc2noc(=O)[nH]2)c2cc(F)ccc2/C1=C\c1cccc(Oc2ccccc2)c1` [C32, (Z)-3-((5-Fluoro-2-methyl-1-(3-phenoxybenzylidene)-1H-inden-3-yl)methyl)-1,2,4-oxadiazol-5(4H)-one], the inhibition at 10 µM is < 30% in experiment [1]; ≥ 50% in experiment [2]; < 30% in experiment [3]; < 30% in experiment [4]; 30 to 50% in experiment [5]; < 30% in experiment [6]. Besides, the inhibition at 10 µM in experiment [7] was < 30%; in experiment [8], 30 to 50%. Further, the inhibition at 3.3 µM is ≥ 50% in experiment [2]; < 30% in experiment [3]; < 30% in experiment [4]; < 30% in experiment [5]; < 30% in experiment [6]; < 30% in experiment [7]. Further, the inhibition at 3.3 µM in experiment [8] is < 30%.
Take `COc1ccc(Oc2ccc(/C=C3/C(C)=C(CC(=O)O)c4cc(F)ccc43)cn2)cc1` [C35, (Z)-2-(5-Fluoro-1-((6-(4-methoxyphenoxy)pyridin-3-yl)methylene)-2-methyl-1H-inden-3-yl)acetic acid]: the inhibition at 10 µM in experiment [1] was < 30%; in experiment [2], < 30%; in experiment [3], < 30%; in experiment [4], 30 to 50%; in experiment [5] it was < 30%; in experiment [6], < 30%. The inhibition at 10 µM is ≥ 50% in experiment [7] and < 30% in experiment [8]. For the same compound, the inhibition at 3.3 µM in experiment [2] was < 30%; in experiment [3] it was < 30%; in experiment [4], < 30%; in experiment [5], < 30%; in experiment [6] it was < 30%; in experiment [7], ≥ 50%. Besides, the inhibition at 3.3 µM in experiment [8] is < 30%. Further, the inhibition at 30 µM in experiment [2] (Compound concentration: 30 μM, read-out: Antiproliferative activity in cancerous cells, MDA-MB-231) is 30 to 50%; in experiment [3] it was < 30%; in experiment [4], < 30%; in experiment [5], < 30%; in experiment [6], < 30%; in experiment [7], 30 to 50%. Also, the inhibition at 30 µM in experiment [8] (Compound concentration: 30 μM, read-out: Antiproliferative activity in cancerous cells, HELA) is < 30%.
Regarding `CC1=C(CC(=O)O)c2cc(F)ccc2/C1=C\c1ccc(Sc2nc3ccccc3[nH]2)cc1` [C36, (Z)-2-(1-(4-((1H-Benzo[d]imidazol-2-yl)thio)benzylidene)-5-fluoro-2-methyl-1H-inden-3-yl)acetic acid], the inhibition at 10 µM in experiment [1] was < 30%; in experiment [2], 30 to 50%; in experiment [3], < 30%; in experiment [4] it was 30 to 50%; in experiment [5], < 30%; in experiment [6], < 30%. For the same compound, the inhibition at 10 µM in experiment [7] is < 30%; in experiment [8], 30 to 50%. The inhibition at 3.3 µM in experiment [2], in experiment [3], in experiment [4], in experiment [5], in experiment [6] and in experiment [7] was < 30% throughout. The inhibition at 3.3 µM in experiment [8] is < 30%. Besides, the inhibition at 30 µM in experiment [3] is < 30%; in experiment [4], 30 to 50%; in experiment [5] it was 30 to 50%; in experiment [6] it was < 30%; in experiment [7], 30 to 50%.
